This note sets out measurements from patent US20240271088A1, “METHOD FOR MAINTAINING AND AMPLIFYING HUMAN PRIMORDIAL GERM CELLS / HUMAN PRIMORDIAL GERM CELL-LIKE CELLS” (KYOTO UNIVERSITY, priority 2020, published 2024).

For assay [1], the system named is 585B1-868BTAG iPSC-derived PGCLCs. Briefly: hPGCLC maintenance and expansion culture with added Wnt signal transduction inhibitors; growth curve and enrichment score by FACS. The following applies: control DMSO. The format is cell-based, human. The source says:
FIG. 14A A drawing showing the suppressive effect of Wnt signal transduction inhibitor on PGCLC dedifferentiation. […] Growth curve of BTAG double-positive cells under each condition in 30 day culture (n=3). The average values of the three experiments were plotted and connected with a straight line. The number after the lowercase letter “c” indicates the number of days of culture.
FIG. 14B A drawing showing the suppressive effect of Wnt signal transduction inhibitor on PGCLC dedifferentiation. […] Enrichment score (n=3) under each condition at C10, C20 and C30. The average values were plotted with red diamonds. Using the DMSO-added group as a control group, a multiple comparison test was performed by Dunnet method. *:p<0.1, **:p<0.05 […]
Further detailed analysis of the FACS analysis results of 585B1-868BTAG (BLIMP1-tdTomato and AP2γ-EGFP) iPS cell-derived proliferated human PGCLC was performed. In the FACS analysis, the expression of the human cell-specific cell surface antigen TRA-1-85 in the population excluding dead cells by DRAQ7 staining was analyzed. […]
Proliferation culture was performed using 585B1-868BTAG iPSC-derived PGCLCs on day 6 of differentiation induction. […] Cells were passaged and counted by FACS every 10 days to draw a proliferation curve. In addition, an enrichment score was calculated at respective culture day numbers.
In general terms: A flow cytometer gives signals particle by particle.

Assay [2] deals with BT+AG+ hPGCLC (d6 hPGCLCs from 585B1 BTAG hiPSC). Briefly: hPGCLC expansion culture on m220 feeders with combinations of chemical substances and cytokines; BT+AG+ cells counted by FACS. The format is cell-based, human. Particulars: 10 days of culture, GMEM, 15% KSR, 2.5% FBS, 100 ng/ml SCF, forskolin 10 μM, rolipram 10 μM, cyclosporin A 5 μM, LIF 10 ng/ml, EGF 50 ng/ml, bFGF 20 ng/ml. How it is done: FIG. 1B Exploration of conditions for expanding hPGCLC in vitro. (B) (Left) Scheme for exploration of conditions for BT^+AG^+ cell proliferation. (Right) Plot showing the number of BT^+AG^+ cells after 10 days of culture under the indicated conditions determined by FACS analysis. (Blue) Combination of chemical substances [forskolin (10 μM), rolipram (10 μM), and cyclosporin A (5 μM)] used for BT^+AG^+ cell proliferation. (Yellow) Combination of cytokines [LIF (10 ng/ml), EGF (50 ng/ml), and basic fibroblast growth factor (bFGF: 20 ng/ml)] used for BT^+AG^+ cell proliferation. About 5000 hPGCLCs were used as the starting cell population. […] Conditions for mPGCLC expansion: green. Conditions without additional chemical substance/cytokine: gray.
In order to examine the influence of cytokine and/or chemical substances on hPGCLC proliferation, hPGCLC was treated with MMC in GK15 containing 2.5% FBS and 100 ng/mL SCF, and supplemented with cytokine and/or chemical substances [10 ng/mL LIF; 50 ng/mL EGF; 20 ng/mL bFGF; 10 μM forskolin; 10 μM rolipram; 5 μM cyclosporin A (SIGMA, 30024)], and the cells were passaged every 10 days [see the section of Fluorescence activated cell sorting]. On the day of passage, about 5.0×10^3 cells were plated on 24-well plates (0.5 mL of medium containing 10 μM Y27632), and 0.5 mL of medium free of Y27632 was 0.5 mL added the next day. […]

On to `O=C(Nc1cccc2cccnc12)c1ccc(N2C(=O)[C@@H]3[C@H](C2=O)[C@@H]2C=C[C@H]3C2)cc1` [IWR1], for which the “appearance of dedifferentiated cells (enrichment score)” value in assay [1] (c10, c20, c30, IWR1 at various concentrations, inhibitor comparison at 2.5 μM) was “significantly suppressed”. For the same compound, in assay [1] (various concentrations added to maintenance and expansion medium, 30 days of culture, n=3), the “effect on hPGCLC proliferation (growth curve of BTAG double-positive cells)” value is reported as “no effect”.
As for “FGF: basic fibroblast growth factor, 20 ng/ml”, in assay [2], the “effect on expansion of the number of BT+AG+ cells” value is “positive effect”.
